Reference: PMC6359636, “Advances in Drug Delivery and Biomaterials: Facts and Vision” (Pharmaceutics, 2019)
Each block holds one compound with its values, some of them ahead of it. Peptide text beside a SMILES is read from it. * marks the point of attachment. 5FAM = O=C1OC2(c3ccc(O)cc3Oc3cc(O)ccc32)c2ccc(C(=O)*)cc21

Experiments:
[1] = test system: intracellular S. aureus; test: Intracellular antibacterial activity in keratinocytes; assay type: cell-based, Staphylococcus aureus; conditions: HaCaT cells
[2] = mass spectroscopy, animal model
[3] = test system: Human Corneal Epithelial (HCE) cells; test: Inflammation model in HCE cells, secreted IL-6 by ELISA; assay type: cell-based; conditions: 72 h
[4] = Franz cells, porcine cornea, preliminary data, relevant variability
Description: To assess their ex vivo corneal permeability, permeation experiments were carried out using fresh and whole porcine corneas mounted on Franz cells.

[5] = Stability of rhNGF formulated solutions; assay type: physicochemical
Description: Drug product formulation. The development of the formulation was addressed to obtain a stable rhNGF solution with suitable characteristics for ocular instillation (pH and osmolality in particular). Excipients already used in ophthalmic preparation were preferred. The stability of rhNGF formulated solutions at different concentrations was investigated in the range of temperature −20 °C–+25 °C. […] Chemical oxidative instability was minimized by the appropriate choice of preparation procedures, lowering O2 head space, using inertized containers and by the addition of an antioxidant. Consequently, methionine as component of formulation, O2 containment during the preparation and O2 head space reduction after filling and before sealing of the container were introduced.

[6] = test system: chondrocytes
Description: The safety and efficacy of nanosystems were determined in terms of hemolytic properties, cytotoxicity, ROS-scavenging activity and anti-inflammatory potency in an OA in vitro cell model. In particular, chondrocytes were stimulated with IL-1β to simulate an inflammatory condition, and treated with nanoparticles or free drugs.

[7] = test system: HeLa and G361; test: Photodynamic ROS production; assay type: cell-based; conditions: TMPyP: 5 μM, 25 Jcm^−2; ZnTPPS4: 0.25 μM, 5 Jcm^−2
Description: (§1) Photodynamic therapy (PDT) is currently another option for the treatment of tumors. This therapy is a combination of a photodynamically-active substance and light of a suitable wavelength. Two tumor cell cultures—HeLa and G361 were used for the in vitro study. Cells were cultured in 96-well plates with TMPyP and ZnTPPS4 photosensitizers at concentrations of 0.25 μM, 0.5 μM and 5 μM. As a light source, a diode emitter with a wavelength of 414 nm and a radiation intensity of 5 Jcm^−2, 25 Jcm^−2 was used and at irradiation times of 1 min 33 s, 7min 43 s. In this study, three measurement methods were used—a viability test (MTT), determination of ROS production and monitoring of changes in membrane potential (JC1). […] A suitable combination of photosensitizer and radiation may be an effective therapy for the treatment of cancer.

[8] = test system: HeLa and G361; test: Photodynamic viability test (MTT); assay type: cell-based; conditions: 414 nm irradiation
Description: as §1

[9] = ROS-scavenging activity, DPPH assay (SFNs); assay type: biochemical
Source text: Osteoarthritis (OA) represents a musculoskeletal pathological condition characterized by chondrocytes apoptosis, extracellular matrix degradation and consequent cartilage degeneration; the main mechanisms involved in OA onset seem to be oxidative stress and the overproduction of pro-inflammatory cytokines, such as interleukin-1β (IL-1β) and tumour necrosis factor-α (TNF-α). Systemic therapy with anti-inflammatory drugs represents the “gold standard” in OA treatment, and Celecoxib is the first choice. However, it presents limited water solubility, poor in vivo bioavailability, fast metabolism and bloodstream clearance^2. Nanomedicine is considered a good strategy to overcome these problems; in fact, nanosystems are able to improve the solubility and the bioavailability of poorly-soluble drugs, and to control/target the drug release, avoiding undesired side effects. Thanks to its biocompatibility and biodegradability, silk fibroin represents the ideal biomaterial candidate for the nanoparticle production. In this study, we selected silk fibroin nanoparticles (SFNs) as the delivery system for two anti-inflammatory hydrophobic drugs: celecoxib (CXB) and curcumin (CUR). […] The safety and efficacy of nanosystems were determined in terms of hemolytic properties, cytotoxicity, ROS-scavenging activity and anti-inflammatory potency in an OA in vitro cell model. […]

[10] = rat, in vivo
Description: In in vivo studies, male Sprague−Dawley rats received a femoral intravenous infusion of IND or oral administrations of MPs and free IND; the plasma of rats was analyzed by HPLC over time in order to evaluate the absolute bioavailability of oral doses.

[11] = test system: blood clots; test: Blood clot resolution in murine mesentery venules; assay type: in vivo
Source text: (§2) Here, a novel thrombolytic nanoagent is realized by conjugating directly the clinical formulation of tPA to the porous structure of soft discoidal polymeric nanoconstructs (tPA-DPNs).

[12] = after 3 h of exposure to serum proteins
Source text: as §2

[13] = no reference given; cited from earlier work

Compound: CNC(C)C1CCC(N)C(OC2C(N)CC(N)C(OC3OCC(C)(O)C(NC)C3O)C2O)O1 (stereo not drawn) [GM, gentamicin]
intracellular antibacterial activity [1]: significant intracellular activity

Compound: CN(Cc1nc2c(N)nc(N)nc2[nH]c1=O)c1ccc(C(=O)N[C@@H](CCC(=O)O)C(=O)O)cc1 [7OH-MTX, 7-hydroxymethotrexate]
metabolite status in vivo [2]: not the major metabolite

Compound: TNFα
secreted IL6 relative to control cells [3]: fivefold higher
secreted IL6 ([3]; TNFα 10 ng/mL): up to 0.058 pg/mL/n° cells

Compound: CC[C@H](C)[C@H](NC(=O)[C@H](CCCCN)NC(=O)[C@@H](NC(=O)[C@H](Cc1c[nH]c2ccccc12)NC(=O)[C@H](Cc1ccccc1)NC(=O)[C@H](CCC(N)=O)NC(=O)[C@H](CC(N)=O)NC(=O)[C@H](CCCNC(=N)N)NC(=O)[C@H](CCCNC(=N)N)NC(=O)[C@H](CCSC)NC(=O)[C@H](CCCCN)NC(=O)[C@H](Cc1c[nH]c2ccccc12)NC(=O)[C@H](CCCCN)NC(=O)[C@H](CCCCN)NC(=O)CNC(=O)CNC(=O)c1ccc2c(c1)C(=O)OC21c2ccc(O)cc2Oc2cc(O)ccc21)[C@@H](C)CC)C(=O)N[C@@H](CCC(N)=O)C(=O)N[C@@H](CCCNC(=N)N)C(=O)O [PNTlys] (5FAM-GGKKWKMRRNQFWIKIQR-OH)
permeability coefficient / diffusion relative to PNT [4]: did not affect the behavior

Compound: rhNGF: human recombinant Nerve Growth Factor
deamidation on storage ([5]; formulated solutions at different concentrations, −20 °C–+25 °C): no deamidation was observed
oxidation on storage ([5]; formulations after 3–9 months of storage): only an oxidized rhNGF form was observed in some cases

Compound: CC[C@H](C)[C@H](NC(=O)[C@H](CCCCN)NC(=O)[C@@H](NC(=O)[C@H](CCC(N)=O)NC(=O)[C@H](CCCNC(=N)N)NC(=O)CNC(=O)CNC(=O)c1ccc2c(c1)C(=O)OC21c2ccc(O)cc2Oc2cc(O)ccc21)[C@@H](C)CC)C(=O)N[C@@H](Cc1c[nH]c2ccccc12)C(=O)N[C@@H](Cc1ccccc1)C(=O)N[C@@H](CCC(N)=O)C(=O)N[C@@H](CC(N)=O)C(=O)N[C@@H](CCCNC(=N)N)C(=O)N[C@@H](CCCNC(=N)N)C(=O)N[C@@H](CCSC)C(=O)N[C@@H](CCCCN)C(=O)N[C@@H](Cc1c[nH]c2ccccc12)C(=O)N[C@@H](CCCCN)C(=O)N[C@@H](CCCCN)C(=O)O [PNTarg]
permeability coefficient / diffusion relative to PNT [4]: did not influence its diffusion with respect to PNT

Compound: COc1cc(/C=C/C(=O)CC(=O)/C=C/c2ccc(O)c(OC)c2)ccc1O [CUR, Curcumin]
cytotoxicity on chondrocytes [6]: highly cytotoxic

Compound: C[n+]1ccc(-c2c3nc(c(-c4cc[n+](C)cc4)c4ccc([nH]4)c(-c4cc[n+](C)cc4)c4nc(c(-c5cc[n+](C)cc5)c5ccc2[nH]5)C=C4)C=C3)cc1 [TMPyP]
ROS production [7]: more pronounced increase
efficacy in MTT test [8]: higher efficacy

Compound: Cc1ccc(-c2cc(C(F)(F)F)nn2-c2ccc(S(N)(=O)=O)cc2)cc1 [CXB, celecoxib]
antioxidant effect [9]: inhibitory
cytotoxicity on chondrocytes [6]: highly cytotoxic

oral bioavailability [10]: about 20%
Compound: COc1ccc2c(c1)c(CC(=O)O)c(C)n2C(=O)c1ccc(Cl)cc1 [IND, indomethacin]

Compound: tPA-DPNs: clinical formulation of tPA conjugated to soft discoidal polymeric nanoconstructs
clots dissolved / vessels ([11]; 1.0 mg/kg, about 1 tenth of the clinical dose): 60%
blood clots resolved / vessels recanalized ([11]; intravenous, 2.5 mg/kg): ~90%
original activity preserved [12]: over 60%

Compound: CO[C@H]1/C=C/O[C@@]2(C)Oc3c(C)c(O)c4c(O)c(c(/C=N/N5CCN(C)CC5)c(O)c4c3C2=O)NC(=O)/C(C)=C\C=C\[C@H](C)[C@H](O)[C@@H](C)[C@@H](O)[C@@H](C)[C@H](OC(C)=O)[C@@H]1C [rifampicin]
solubility in water [13]: 0.14 % w/v
